Assay results taken from paper PMC2788672 (Journal of medicinal chemistry, 2009).
≈ marks a conversion by molar mass, not a printed value. Entries after “also recorded” stand apart in the source; their conditions may differ. Where two headings read alike, the source gives them in different places.

Tests used:
[1] = test system: sporogonic development of Plasmodium berghei ANKA in Anopheles stephensi; experiment: In vivo transmission-blocking activity; details: single i.p. dose to mice
[2] = test system: A549 human adenocarcinoma epithelial lung cells; experiment: Cytotoxicity, viability of A549 cells; assay type: cell-based
P. carinii [3] = experiment: In vitro anti-P. carinii ATP detection assay; assay type: cell-based, Pneumocystis carinii; details: for IC50: Pneumocystis carinii
[4] = test system: chloroquine-resistant P. falciparum strain W2; experiment: In vitro blood-schizontocidal activity assay; assay type: cell-based, Plasmodium falciparum; details: P. falciparum W2, 48 h incubation
P. carinii [5] = details: 72 h, ref [28], cited from earlier work; for IC50: read-out: Anti-P. carinii activity IC50
[6] = test system: chloroquine-resistant P. falciparum strain W2; details: cited from earlier work; for IC50: read-out: Activity against blood stage forms IC50, ref [28]
[7] = 48 h, read-out: Anti-P. carinii activity IC50, 48 h
[8] = 72 h, read-out: Anti-P. carinii activity IC50, 72 h
[9] = 24 h, read-out: Anti-P. carinii activity IC50, 24 h

Structure (SMILES) | IC50 (P. carinii [3]; [7]) [µg/mL] | IC50 (P. carinii [3]; [8]) [µg/mL] | IC50 (P. carinii [3]; [9]) [µg/mL] | Mean no. of oocysts per mosquito±SEM ([1]; dose 10 µmol/kg) | Mean no. of oocysts per mosquito±SEM ([1]; dose 50 µmol/kg) | also measured
COc1cc(N(C(C)=O)C(C)CCCN2C(=O)CN(C(C)=O)C2(C)C)c2ncccc2c1 (stereo not shown) [Compound 7] |  |  |  |  |  | Activity against blood stage forms IC50 [4]: devoid of blood-schizontocidal activity; Anti-P. carinii activity (activity scale) (P. carinii [3]; 24 h): Inactive; Anti-P. carinii activity (activity scale) (P. carinii [3]; 48 h): Inactive; Anti-P. carinii activity (activity scale) (P. carinii [3]; 72 h): Inactive
COc1cc(NC(C)CCCN)c2ncccc2c1 (stereo not shown) [Compound 1, primaquine, reference compound] |  |  |  | 3.5 ±1.2 | 0.2 ±0.2 | IC50 (P. carinii [3]; 24 h, read-out: Anti-P. carinii activity IC50): 4.7 µg/mL (≈ 18.1 µM); IC50 (P. carinii [3]; 48 h, read-out: Anti-P. carinii activity IC50): 2.2 µg/mL (≈ 8.48 µM); IC50 (P. carinii [3]; 72 h, read-out: Anti-P. carinii activity IC50): 0.9 µg/mL (≈ 3.47 µM)
COc1cc(NC(C)CCCN2C(=O)CNC2(C)C)c2ncccc2c1 (stereo not shown) [Compound 4a] |  |  |  |  |  | Anti-P. carinii activity IC50 (P. carinii [5]): 8.3 µg/mL; IC50 (P. carinii [5]): 23 µM; IC50 [6]: 9.1 µM
COc1cc(NC(C)CCCN2C(=O)[C@@H](C)NC2(C)C)c2ncccc2c1 (stereo partly shown) [Compound 4b] |  |  |  |  |  | Anti-P. carinii activity IC50 (P. carinii [5]): 83.7 µg/mL; IC50 (P. carinii [5]): 226 µM; IC50 [6]: > 50 µM; Activity against blood stage forms IC50 ([6]; ref [28]): complete loss of activity
COc1cc(NC(C)CCCN2C(=O)CN(C(C)=O)C2(C)C)c2ncccc2c1 (stereo not shown) [Compound 6] | 40.5 (≈ 102 µM) | 14.6 (≈ 36.6 µM) |  |  |  | Activity against blood stage forms IC50 [4]: complete loss of activity; also recorded: devoid of blood-schizontocidal activity; Anti-P. carinii activity (activity scale) (P. carinii [3]; 24 h): Inactive

Further lines, with some results ahead:

IC50 (P. carinii [3]; [7]) [µg/mL] | IC50 (P. carinii [3]; [8]) [µg/mL] | IC50 (P. carinii [3]; [9]) [µg/mL] | Structure (SMILES) | Mean no. of oocysts per mosquito±SEM ([1]; dose 10 µmol/kg) | Mean no. of oocysts per mosquito±SEM ([1]; dose 50 µmol/kg) | also measured
32.2 (≈ 75.3 µM) | 22.3 (≈ 52.2 µM) |  | COc1cc(NC(C)CCCN2C(=O)[C@@H](C)N(C(=O)CN)C2(C)C)c2ncccc2c1 (stereo partly shown) [Compound 5h] | 3.3 ±1.1 | 1.8 ±0.5 | Cytotoxicity (A549 cells) IC50 at 72 h [2]: no toxicity; Anti-P. carinii activity (activity scale) (P. carinii [3]; 24 h): Inactive
8.4 (≈ 17.9 µM) | 5.1 (≈ 10.9 µM) | 14.6 (≈ 31.1 µM) | COc1cc(NC(C)CCCN2C(=O)CN(C(=O)[C@H](N)CC(C)C)C2(C)C)c2ncccc2c1 (stereo partly shown) [Compound 5d] |  |  | 
7.5 (≈ 16 µM) | 4.6 (≈ 9.79 µM) | 12.9 (≈ 27.5 µM) | CC[C@H](C)[C@@H](N)C(=O)N1CC(=O)N(CCCC(C)Nc2cc(OC)cc3cccnc23)C1(C)C (stereo partly shown) [Compound 5e, 1-isoleucyl-3-(4-(6-methoxyquinolin-8-ylamino)pentyl)-2,2-dimethylimidazolidin-4-one] | 4.9 ±0.6 | 1.5 ±0.5 | 
8 (≈ 18.7 µM) | 3.6 (≈ 8.42 µM) | 16.9 (≈ 39.5 µM) | COc1cc(NC(C)CCCN2C(=O)CN(C(=O)[C@@H](C)N)C2(C)C)c2ncccc2c1 (stereo partly shown) [Compound 5b] |  | 1.3 ±0.3 | 
9.2 (≈ 20.2 µM) | 6.2 (≈ 13.6 µM) | 24.7 (≈ 54.2 µM) | COc1cc(NC(C)CCCN2C(=O)CN(C(=O)[C@H](N)C(C)C)C2(C)C)c2ncccc2c1 (stereo partly shown) [Compound 5c] |  |  | 
15.5 (≈ 37.5 µM) | 11.6 (≈ 28.1 µM) | 18.1 (≈ 43.8 µM) | COc1cc(NC(C)CCCN2C(=O)CN(C(=O)CN)C2(C)C)c2ncccc2c1 (stereo not shown) [Compound 5a] |  |  | Cytotoxicity (A549 cells) IC50 at 72 h [2]: no toxicity
6.4 (≈ 13.1 µM) | 3.4 (≈ 6.97 µM) | 11.6 (≈ 23.8 µM) | COc1cc(NC(C)CCCN2C(=O)CN(C(=O)[C@H](N)CCSC)C2(C)C)c2ncccc2c1 (stereo partly shown) [Compound 5f] | 1.2 ±0.4 | 3.8 ±1.4 | 
9.3 (≈ 18.5 µM) | 5.1 (≈ 10.1 µM) | 12.1 (≈ 24 µM) | COc1cc(NC(C)CCCN2C(=O)CN(C(=O)[C@H](N)Cc3ccccc3)C2(C)C)c2ncccc2c1 (stereo partly shown) [Compound 5g] | 3.7 ±1.2 | 2.2 ±0.8 | 
